In ChEMBL document CHEMBL5257023, “Identification of leads for antiproliferative activity on MDA-MB-435 human breast cancer cells through pharmacophore and CYP1A1-mediated metabolism” (Eur J Med Chem, 2016):
Where a name gives a salt, the structure may show the parent alone. Blank lines part the entries; values can stand above or below the compound they belong to.

Legend:
MCF7 [1] = assay: Anticancer activity against human MCF7 cells assessed as inhibition of cell growth; type: functional, cell-based
MDA-MB-435 [2] = assay: Anticancer activity against human MDA-MB-435 cells assessed as inhibition of cell growth incubated for 48 hrs by SRB assay; type: functional
NCI-H226 [3] = assay: Anticancer activity against human NCI-H226 cells assessed as cell growth at 10 uM incubated for 48 hrs by SRB assay; type: functional; details: read-out: Activity
MDA-MB-435 [4] = assay: Anticancer activity against human MDA-MB-435 cells assessed as cell growth at 10 uM incubated for 48 hrs by SRB assay; type: functional; details: read-out: Activity
MCF7 [5] = assay: Anticancer activity against human MCF7 cells assessed as inhibition of cell growth incubated for 48 hrs by SRB assay; type: functional
MDA-MB-468 [6] = assay: Anticancer activity against human MDA-MB-468 cells assessed as cell growth at 1 uM incubated for 48 hrs by SRB assay; type: functional; details: read-out: Activity
MDA-MB-435 [7] = assay: Anticancer activity against human MDA-MB-435 cells assessed as cell growth at 1 uM incubated for 48 hrs by SRB assay; type: functional; details: read-out: Activity
MDA-MB-468 [8] = assay: Anticancer activity against human MDA-MB-468 cells assessed as cell growth at 10 uM incubated for 48 hrs by SRB assay; type: functional; details: read-out: Activity
MCF7 [9] = assay: Anticancer activity against human MCF7 cells assessed as cell growth at 100 uM incubated for 48 hrs by SRB assay; type: functional; details: read-out: Activity
MCF7 [10] = assay: Anticancer activity against human MCF7 cells assessed as cell growth at 0.1 uM incubated for 48 hrs by SRB assay; type: functional; details: read-out: Activity
NCI-H226 [11] = assay: Anticancer activity against human NCI-H226 cells assessed as cell growth at 0.1 uM incubated for 48 hrs by SRB assay; type: functional; details: read-out: Activity
NCI-H226 [12] = assay: Anticancer activity against human NCI-H226 cells assessed as cell growth at 1 uM incubated for 48 hrs by SRB assay; type: functional; details: read-out: Activity
MDA-MB-468 [13] = assay: Anticancer activity against human MDA-MB-468 cells assessed as cell growth at 100 uM incubated for 48 hrs by SRB assay; type: functional; details: read-out: Activity
MDA-MB-468 [14] = assay: Anticancer activity against human MDA-MB-468 cells assessed as cell growth at 0.1 uM incubated for 48 hrs by SRB assay; type: functional; details: read-out: Activity
MCF7 [15] = assay: Anticancer activity against human MCF7 cells assessed as cell growth at 1 uM incubated for 48 hrs by SRB assay; type: functional; details: read-out: Activity
MCF7 [16] = assay: Anticancer activity against human MCF7 cells assessed as cell growth at 10 uM incubated for 48 hrs by SRB assay; type: functional; details: read-out: Activity
NCI-H226 [17] = assay: Anticancer activity against human NCI-H226 cells assessed as cell growth at 100 uM incubated for 48 hrs by SRB assay; type: functional; details: read-out: Activity
NCI-H226 [18] = assay: Anticancer activity against human NCI-H226 cells assessed as inhibition of cell growth incubated for 48 hrs by SRB assay; type: functional
MDA-MB-435 [19] = assay: Anticancer activity against human MDA-MB-435 cells assessed as cell growth at 100 uM incubated for 48 hrs by SRB assay; type: functional; details: read-out: Activity
MDA-MB-435 [20] = assay: Anticancer activity against human MDA-MB-435 cells assessed as cell growth at 0.1 uM incubated for 48 hrs by SRB assay; type: functional; details: read-out: Activity
MDA-MB-468 [21] = assay: Anticancer activity against human MDA-MB-468 cells assessed as inhibition of cell growth incubated for 48 hrs by SRB assay; type: functional
[22] = read-out: LC50 (the source's name)

SMILES: COc1ccc(-c2coc3cc(F)ccc3c2=O)cc1OC
IC50 (MCF7 [1]): 90.6 µM

SMILES: COc1ccc(-c2nc3cc(F)ccc3o2)cc1
IC50 (MCF7 [1]): 22.7 µM

SMILES: COc1cccc(OC)c1-c1nc2ccc(F)cc2o1
IC50 (MCF7 [1]): 90.7 µM

SMILES: Fc1ccc2sc(-c3ccc4c(c3)OCO4)nc2c1
IC50 (MCF7 [1]): 20.7 µM

SMILES: COc1ccc(-c2coc3c(F)cccc3c2=O)cc1OC
IC50 (MCF7 [1]): 75.5 µM

SMILES: COc1ccc(-c2coc3ccccc3c2=O)cc1
IC50 (MCF7 [1]): 81.4 µM

SMILES: Oc1ccc(-c2nc3cc(C(F)(F)F)ccc3s2)cc1
IC50 (MCF7 [1]): 13.8 µM

SMILES: COc1ccc(-c2cc(=O)c3ccc(F)cc3o2)cc1OC
IC50 (MCF7 [1]): 27.9 µM

SMILES: COc1ccc(-c2nc3cc(Br)ccc3s2)cc1OC
IC50 (MCF7 [1]): 13.6 µM

SMILES: COc1cccc2c1C(=O)c1c(O)c3c(c(O)c1C2=O)C[C@@](O)(C(=O)CO)C[C@@H]3O[C@H]1C[C@H](N)[C@H](O)[C@H](C)O1 [DOXORUBICIN HYDROCHLORIDE]
GI50 (MDA-MB-435 [2]): < 0.1 µM
TGI (MDA-MB-435 [2]): 43.4 µM
growth at 10 µM (NCI-H226 [3]): 8.1%
growth at 10 µM (MDA-MB-435 [4]): -26.6%
GI50 (MCF7 [5]): < 0.1 µM
TGI (MCF7 [5]): 90.4 µM
CC50 (MCF7 [5]; [22]): > 100 µM
growth at 1 µM (MDA-MB-468 [6]): 64.5%
growth at 1 µM (MDA-MB-435 [7]): 42.8%
growth at 10 µM (MDA-MB-468 [8]): 22%
growth at 100 µM (MCF7 [9]): -1.6%
growth at 0.1 µM (MCF7 [10]): 28.5%
growth at 0.1 µM (NCI-H226 [11]): 57.4%
growth at 1 µM (NCI-H226 [12]): 12.7%
growth at 100 µM (MDA-MB-468 [13]): -60.9%
growth at 0.1 µM (MDA-MB-468 [14]): 83%
growth at 1 µM (MCF7 [15]): 17.2%
growth at 10 µM (MCF7 [16]): 10.5%
growth at 100 µM (NCI-H226 [17]): -38.3%
GI50 (NCI-H226 [18]): < 0.1 µM
TGI (NCI-H226 [18]): 43.2 µM
growth at 100 µM (MDA-MB-435 [19]): -30.9%
growth at 0.1 µM (MDA-MB-435 [20]): 50.8%
GI50 (MDA-MB-468 [21]): 10.5 µM
TGI (MDA-MB-468 [21]): 50.4 µM
CC50 (MDA-MB-468 [21]; [22]): 90.2 µM

SMILES: COc1ccc(-c2nc3ccc(F)cc3o2)c(OC)c1
IC50 (MCF7 [1]): 69.9 µM

SMILES: COc1cccc(-c2nc3ccc(F)cc3o2)c1
IC50 (MCF7 [1]): 35.1 µM

SMILES: COc1ccc(-c2nc3cc(Cl)ccc3s2)cc1OC
IC50 (MCF7 [1]): 27.9 µM

SMILES: Fc1ccc2nc(-c3ccc4c(c3)OCO4)oc2c1
IC50 (MCF7 [1]): 19.2 µM

SMILES: COc1ccc(-c2coc3cc(F)c(F)cc3c2=O)cc1OC
IC50 (MCF7 [1]): 41.5 µM

SMILES: c1ccc2sc(-c3ccc4c(c3)OCO4)nc2c1
IC50 (MCF7 [1]): 57.8 µM

SMILES: COc1ccc(-c2nc3ccc(F)cc3o2)cc1
IC50 (MCF7 [1]): 41 µM

SMILES: O=c1c(-c2ccc(Cl)cc2)coc2ccccc12
IC50 (MCF7 [1]): 64.9 µM

SMILES: COc1ccc2nc(-c3ccc(O)cc3)sc2c1
IC50 (MCF7 [1]): 45.8 µM

SMILES: COc1ccc(-c2coc3c(F)cc(F)cc3c2=O)cc1OC
IC50 (MCF7 [1]): 46.7 µM

SMILES: Oc1ccc(-c2nc3ccc(Cl)cc3s2)cc1
IC50 (MCF7 [1]): 26.5 µM

SMILES: COc1cccc(OC)c1-c1nc2cc(F)ccc2o1
IC50 (MCF7 [1]): 58.1 µM

SMILES: COc1ccc(-c2coc3c(F)c(F)ccc3c2=O)cc1OC
IC50 (MCF7 [1]): 47.2 µM

SMILES: CS(=O)(=O)c1ccc2nc(-c3ccc(O)cc3)sc2c1
IC50 (MCF7 [1]): 62.3 µM

SMILES: COc1ccc(-c2coc3ccccc3c2=O)cc1OC
IC50 (MCF7 [1]): 88.1 µM

SMILES: Fc1ccc2oc(-c3ccc4c(c3)OCO4)nc2c1
IC50 (MCF7 [1]): 61.4 µM

SMILES: COc1ccc(-c2cc(=O)c3cc(F)ccc3o2)cc1OC
IC50 (MCF7 [1]): 83.4 µM

SMILES: O=c1c(-c2ccc3c(c2)OCO3)coc2ccc(F)cc12
IC50 (MCF7 [1]): 60 µM

SMILES: COc1cccc(-c2nc3cc(F)ccc3o2)c1
IC50 (MCF7 [1]): 39.5 µM

SMILES: COc1ccc(-c2coc3cc(F)ccc3c2=O)cc1
IC50 (MCF7 [1]): 43.8 µM

SMILES: COc1cc(-c2nc3cc(F)ccc3o2)cc(OC)c1OC
IC50 (MCF7 [1]): 16 µM

SMILES: COc1cc(OC)cc(-c2nc3cc(F)ccc3o2)c1
IC50 (MCF7 [1]): 45.4 µM

SMILES: COc1ccc(-c2coc3ccc(F)cc3c2=O)cc1OC
IC50 (MCF7 [1]): 93.1 µM

SMILES: COc1ccc(-c2nc3ccccc3s2)cc1OC
IC50 (MCF7 [1]): 52.7 µM

Next, values leading:

IC50 (MCF7 [1]): 0.048 µM
SMILES: COc1ccc(-c2nc3cc(F)ccc3s2)cc1C

IC50 (MCF7 [1]): 0.36 µM
SMILES: COc1ccccc1-c1nc2cc(F)ccc2o1

IC50 (MCF7 [1]): 0.82 µM
SMILES: COc1ccccc1-c1nc2ccc(F)cc2s1

IC50 (MCF7 [1]): 0.87 µM
SMILES: COc1ccc(-c2nc3cc(F)ccc3s2)cc1F

IC50 (MCF7 [1]): 0.08 µM
SMILES: CCOc1cc(-c2nc3cc(F)ccc3s2)ccc1OC

IC50 (MCF7 [1]): 4.16 µM
SMILES: Oc1ccc(-c2nc3ccc(Br)cc3s2)cc1

IC50 (MCF7 [1]): 8.8 µM
SMILES: O=c1c(-c2ccc(Br)cc2)coc2ccccc12

IC50 (MCF7 [1]): 0.0019 µM
SMILES: COc1cc(-c2nc3cc(F)ccc3s2)cc(OC)c1OC

IC50 (MCF7 [1]): 3.72 µM
SMILES: COc1cc(OC)cc(-c2nc3ccc(F)cc3o2)c1

IC50 (MCF7 [1]): 0.0001 µM
SMILES: Cc1cc(-c2nc3cc(F)ccc3s2)ccc1N

IC50 (MCF7 [1]): 0.85 µM
SMILES: COc1ccc(-c2nc3cc(F)ccc3s2)cc1Br

IC50 (MCF7 [1]): 0.005 µM
SMILES: COc1ccc(-c2nc3c(F)cccc3s2)cc1OC

IC50 (MCF7 [1]): 0.82 µM
SMILES: COc1ccc(-c2nc3cc(F)ccc3s2)cc1I

IC50 (MCF7 [1]): 1.09 µM
SMILES: COc1cc(-c2nc3ccc(F)cc3o2)cc(OC)c1OC

IC50 (MCF7 [1]): 0.76 µM
SMILES: COc1ccc(-c2nc3cc(F)ccc3s2)cc1Cl

IC50 (MCF7 [1]): 0.49 µM
SMILES: COc1ccc(-c2nc3cc(F)ccc3s2)cc1

IC50 (MCF7 [1]): 0.065 µM
SMILES: COCOc1ccc(-c2nc3cc(F)ccc3s2)cc1OC

IC50 (MCF7 [1]): 0.5 µM
SMILES: Cc1ccc(-c2nc3cc(F)ccc3s2)cc1O

IC50 (MCF7 [1]): 0.4 µM
SMILES: Oc1ccc(-c2nc3cc(F)ccc3s2)cc1

IC50 (MCF7 [1]): 0.023 µM
SMILES: COc1ccc(-c2nc3cc(F)ccc3s2)c(OC)c1OC

IC50 (MCF7 [1]): 0.062 µM
SMILES: COc1ccc(-c2nc3ccc(F)cc3s2)cc1OC

IC50 (MCF7 [1]): 0.0007 µM
SMILES: CCOc1ccc(-c2nc3cc(F)ccc3s2)cc1OCC

IC50 (MCF7 [1]): 0.83 µM
SMILES: COc1ccc(-c2nc3cc(F)ccc3o2)cc1OC

IC50 (MCF7 [1]): 0.035 µM
SMILES: Cc1c(F)c(N)c2c(=O)cc(-c3ccc(N)c(F)c3)oc2c1F [AMINOFLAVONE]

IC50 (MCF7 [1]): 0.57 µM
SMILES: Oc1cccc(-c2nc3cc(F)ccc3s2)c1

IC50 (MCF7 [1]): 7.9 µM
SMILES: O=c1c(-c2cccc([N+](=O)[O-])c2)coc2ccccc12

IC50 (MCF7 [1]): 1.23 µM
SMILES: COc1cc(OC)cc(-c2nc3cc(F)ccc3s2)c1

IC50 (MCF7 [1]): 0.653 µM
SMILES: COc1cc(-c2nc3cc(F)ccc3s2)cc(O)c1OC

IC50 (MCF7 [1]): 0.72 µM
SMILES: Oc1ccc(-c2nc3cc(F)ccc3s2)cc1O
